16 compounds from US9957298B2, “Peptides as oxytocin agonists” (Hoffmann-La Roche Inc., priority 2014, dated 2018) can be followed below.

What all share (type): cell-based
For test [1], the target named is T1, human Oxytocin (OTR) receptor (Homo sapiens, UniProt P30559).
T1 construct: expressed in transfected cells
T1 sequence (P30559 1-389): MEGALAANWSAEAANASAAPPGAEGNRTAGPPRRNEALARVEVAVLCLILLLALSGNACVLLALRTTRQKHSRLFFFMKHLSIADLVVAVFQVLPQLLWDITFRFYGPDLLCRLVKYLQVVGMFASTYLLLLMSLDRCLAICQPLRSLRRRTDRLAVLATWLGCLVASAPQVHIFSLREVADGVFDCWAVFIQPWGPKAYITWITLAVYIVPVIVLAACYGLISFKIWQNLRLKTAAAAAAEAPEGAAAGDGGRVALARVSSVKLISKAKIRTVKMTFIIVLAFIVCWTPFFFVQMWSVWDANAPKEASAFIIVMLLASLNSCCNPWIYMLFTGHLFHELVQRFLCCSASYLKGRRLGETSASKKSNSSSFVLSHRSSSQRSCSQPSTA
The test can be described thus: Calcium flux assay (FLIPR), agonist mode, CHO cells expressing human oxytocin receptor. The settings on record: for EC50: CHO cells, human OTR, calcium flux FLIPR, read-out: hOT EC50; for hOT efficacy (%) / Emax: maximum response normalized to endogenous full agonist = 100%; for Emax: CHO, read-out: hOT efficacy (%). The text has this: (§1) Chines Hamster Ovary (CHO) cells were transfected with expression plasmids encoding either the human V1a, the human Oxytocin (OTR) or the human V2 receptor, the later in combination with the chimeric Gqs5 G protein to redirect the signal to Calcium flux. Stable cells were cloned by limiting dilution to yield monoclonal cell lines expressing either human V1a, human V2+Gqs5 or human OTR receptors and selected based on functional responses detected on a fluorometric imaging plate reader (FLIPR) detecting Calcium flux in the cell after receptor activation. The stable cell lines were grown in F-12 K Nutrient Mixture (Kaighns Modification), containing 10% foetal bovine serum (FBS), 1% penicillin-streptomycin, 1% L-[…], 200 ug/ml Geneticin at 37° C. in a 10% CO2 incubator at 95% humidity.
(§2) On the afternoon before the assay, cells were plated at a density of 50,000 cells/well into black 96 well plates with clear bottoms to allow cell inspection and fluorescence measurements from the bottom of each well. The density of cells was sufficient to yield a confluent monolayer the next day. Hanks balanced salt solution, without phenol red, containing 20 mM HEPES (pH 7.3) and 2.5 mM probenecid (assay buffer) was prepared fresh for each experiment. Compound dilutions were made using a Beckman Biomek 2000 laboratory automation workstation, in assay buffer containing 1% DMSO. The dye-loading buffer consisted of a final concentration of 2 μM Fluo-4-AM (dissolved in DMSO and pluronic acid) in assay buffer. The existing culture media was removed from the wells and 100 μl of the dye-loading buffer was added to each well and incubated for approximately 60 min at 37° C. in a 5% CO2 incubator at 95% humidity. Once dye-loaded, the cells were washed thoroughly on an Embla cell washer with the assay buffer to remove any unincorporated dye. Exactly 100 μl assay buffer was left in each well.
(§3) Each 96 well plate containing dye-loaded cells was placed into the FLIPR machine and the laser intensity set to a suitable level to detect low basal fluorescence. To test compounds as agonists, 25 μl diluted compound was added to the plate 10 seconds into the fluorescent measurements and fluorescent response was recorded for 5 minutes. The fluorescence data was normalized to the endogenous full agonist dose-response set at 100% for the maximum response and 0% for the minimum. Each agonist concentration-response curve was constructed using a four parameter logistic equation with Microsoft Excel XLFit as follows: Y=Minimum+((Maximum−Minimum)/(1+10^(LogEC50-X)nH)), where y is the % normalized fluorescence, minimum is the minimum y, maximum is the maximum y, logEC50 is the log10 concentration which produces 50% of the maximum induced fluorescence, x is the log10 of the concentration of the agonist compound and H is the slope of the curve (the Hill Coefficient). The maximum value gives the efficacy of the agonist test compound in percentage. The concentration of agonist that produced a half-maximal response is represented by the EC50 value, the logarithm of which yielded the pEC50 value.

The target of the next test is T2, human V2 receptor (Homo sapiens, UniProt P30518).
T2 construct: expressed in transfected cells
Nature of the test: Calcium flux assay (FLIPR), agonist mode, CHO cells expressing human V2 receptor + Gqs5. As to conditions: for EC50: CHO cells, human V2 + chimeric Gqs5, calcium flux FLIPR, read-out: hV2 EC50.
From the text: as §1, §2, §3

In another test the target is T3, human V1a receptor (Homo sapiens, UniProt P37288).
T3 construct: expressed in transfected cells
The test can be described thus: Calcium flux assay (FLIPR), agonist mode, CHO cells expressing human V1a receptor. The settings on record: read-out: hV1a EC50.
From the text: as §1, §2, §3

The mark [2] stands for this setting: maximum response normalized to endogenous full agonist = 100%.

Starred links: 1 amine or outer side, 2 acyl side, 3 side chain; linkers in the order of their positions; H or OH if unused. Positions of bridges follow the written chain, without caps; N, C: chain ends. Non-standard residues stand in square brackets, D forms with d. Residues, ends and D or L forms follow the SMILES beside them. d(αMeL) = CC(C)C[C@@](C)(N)C(=O)O; 2Thi = N[C@@H](Cc1cccs1)C(=O)O; Chg = N[C@H](C(=O)O)C1CCCCC1; Suc = O=C(CCC(=O)[*:2])[*:1]; Nle = CCCC[C@H](N)C(=O)O; NcPrGly = O=C(O)CNC1CC1; Nva = CCC[C@H](N)C(=O)O; Dap = NC[C@H](N)C(=O)O; Aib = CC(C)(N)C(=O)O; Sar = CNCC(=O)O

T2 sequence (P30518 whole entry): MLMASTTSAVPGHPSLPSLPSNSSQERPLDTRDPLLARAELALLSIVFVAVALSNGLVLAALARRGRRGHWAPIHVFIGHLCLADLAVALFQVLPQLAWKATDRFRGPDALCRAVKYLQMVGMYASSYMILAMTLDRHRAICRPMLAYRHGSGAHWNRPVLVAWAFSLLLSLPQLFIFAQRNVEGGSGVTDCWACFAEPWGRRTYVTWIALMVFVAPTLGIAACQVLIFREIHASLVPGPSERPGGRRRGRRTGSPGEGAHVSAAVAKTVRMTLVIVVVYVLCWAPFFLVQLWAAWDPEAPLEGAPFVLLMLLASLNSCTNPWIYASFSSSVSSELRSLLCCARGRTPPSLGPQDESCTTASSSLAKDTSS
T3 sequence (P37288 whole entry): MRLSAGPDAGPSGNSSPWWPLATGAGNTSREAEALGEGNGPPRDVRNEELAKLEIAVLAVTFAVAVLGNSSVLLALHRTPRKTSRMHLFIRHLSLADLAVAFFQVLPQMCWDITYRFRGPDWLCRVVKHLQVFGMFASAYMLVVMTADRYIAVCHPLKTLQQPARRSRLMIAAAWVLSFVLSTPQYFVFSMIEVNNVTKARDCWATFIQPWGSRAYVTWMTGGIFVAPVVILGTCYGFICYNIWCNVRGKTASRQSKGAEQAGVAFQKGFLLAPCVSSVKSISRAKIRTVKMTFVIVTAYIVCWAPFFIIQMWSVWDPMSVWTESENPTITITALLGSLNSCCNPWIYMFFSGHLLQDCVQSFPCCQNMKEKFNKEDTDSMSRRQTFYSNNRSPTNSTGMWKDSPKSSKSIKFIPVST

Take `CC[C@H](C)[C@@H]1NC(=O)[C@H](Cc2ccc(O)cc2)NC(=O)CCC(=O)NC[C@@H](C(=O)N2CCC[C@H]2C(=O)N[C@@H](CC(C)C)C(=O)NCC(N)=O)NC(=O)[C@H](CC(N)=O)NC(=O)[C@H](CCC(N)=O)NC1=O` [Example 1] (YIQN[Dap]PLG-NH2; linker N-5 via Suc (inferred); C-terminus assumed): the EC50 in test [1] amounted to 1 nM; on human V2 receptor it was 216 nM; at human V1a receptor it was 5120 nM. In addition, the “hOT efficacy (%)” value in test [1] is 105%. The “hV2 efficacy (%)” value at human V2 receptor (setting [2]) stood at 130%.
Consider `CC[C@H](C)[C@@H]1NC(=O)[C@H](Cc2ccc(O)cc2)NC(=O)[C@@H](N)CC(=O)NC[C@@H](C(=O)N(C)CC(=O)N[C@@H](CC(C)C)C(=O)NCC(N)=O)NC(=O)[C@H](CC(N)=O)NC(=O)[C@H](CCC(N)=O)NC1=O` [Example 2] (H-DYIQN[Dap][Sar]LG-NH2; lactam 1-6), for which the EC50 was 4 nM in test [1] and above 27000 nM at human V1a receptor. The “hOT efficacy (%)” value in test [1] stood at 144%.
Regarding `CC[C@H](C)[C@@H]1NC(=O)[C@H](Cc2ccc(O)cc2)NC(=O)CCC(=O)NC[C@@H](C(=O)N(C)CC(=O)N[C@@H](CC(C)C)C(=O)NCC(N)=O)NC(=O)[C@H](CC(N)=O)NC(=O)[C@H](CCC(N)=O)NC1=O` [Example 3] (YIQN[Dap][Sar]LG-NH2; linker N-5 via Suc), the concentration giving a half-maximal response (EC50) in test [1] is 0.9 nM; on human V2 receptor it was 612 nM; on human V1a receptor, above 27000 nM. The Emax in test [1] stood at 113%. In addition, the “hV2 efficacy (%)” value on human V2 receptor (setting [2]) was 130%.
For `CC[C@H](C)[C@@H]1NC(=O)[C@H](Cc2ccc(O)cc2)NC(=O)CCC(=O)NC[C@@H](C(=O)N(C)CC(=O)N[C@H](C(=O)NCC(N)=O)C(C)C)NC(=O)[C@H](CC(N)=O)NC(=O)[C@H](CCC(N)=O)NC1=O` [Example 5] (YIQN[Dap][Sar]VG-NH2; linker N-5 via Suc), the EC50 was 0.7 nM in test [1], 1130 nM at human V2 receptor and above 27000 nM at human V1a receptor. The Emax in test [1] was found to be 111%; on human V2 receptor (CHO, maximum response normalized to endogenous full agonist = 100%, read-out: hV2 efficacy (%)), 123%.
Turning to `CCCC[C@H](NC(=O)CN(C)C(=O)[C@@H]1CNC(=O)CCC(=O)N[C@@H](Cc2ccc(O)cc2)C(=O)N[C@@H]([C@@H](C)CC)C(=O)N[C@@H](CCC(N)=O)C(=O)N[C@@H](CC(N)=O)C(=O)N1)C(=O)NCC(N)=O` [Example 6] (YIQN[Dap][Sar][Nle]G-NH2; linker N-5 via Suc), the EC50 is 1 nM in test [1], 364 nM on human V2 receptor and above 27000 nM at human V1a receptor. For the same compound, in test [1], the “hOT efficacy (%)” value was 119%. For the same compound, the “hV2 efficacy (%)” value at human V2 receptor (setting [2]) came out at 104%.
Regarding `CCC[C@H](NC(=O)[C@@H]1CCCN1C(=O)[C@@H]1CNC(=O)CCC(=O)N[C@@H](Cc2ccc(O)cc2)C(=O)N[C@@H]([C@@H](C)CC)C(=O)N[C@@H](CCC(N)=O)C(=O)N[C@@H](CC(N)=O)C(=O)N1)C(=O)NCC(N)=O` [Example 17] (YIQN[Dap]P[Nva]G-NH2; linker N-5 via Suc), the EC50 in test [1] stood at 0.6 nM; at human V2 receptor it was 116 nM; at human V1a receptor it was 351 nM. The Emax in test [1] worked out at 114%. For the same compound, the “hV2 efficacy (%)” value at human V2 receptor (setting [2]) was 116/116%.
For `CC[C@H](C)[C@@H]1NC(=O)[C@H](Cc2ccc(O)cc2)NC(=O)CCC(=O)NC[C@@H](C(=O)N(C)CC(=O)N[C@@H](Cc2cccs2)C(=O)NCC(N)=O)NC(=O)[C@H](CC(N)=O)NC(=O)[C@H](CCC(N)=O)NC1=O` [Example 34] (YIQN[Dap][Sar][2Thi]G-NH2; linker N-5 via Suc), in test [1], the EC50 was determined as 3 nM and the “hOT efficacy (%)” value came to 106%.
For `CC[C@H](C)[C@@H]1NC(=O)[C@H](Cc2ccc(O)cc2)NC(=O)CCC(=O)NC[C@@H](C(=O)N(C)CC(=O)N[C@@H](Cc2cnc[nH]2)C(=O)NCC(N)=O)NC(=O)[C@H](CC(N)=O)NC(=O)[C@H](CCC(N)=O)NC1=O` [Example 35] (YIQN[Dap][Sar]HG-NH2; linker N-5 via Suc) the same measures were 4 nM and 111%.
For `CC[C@H](C)[C@@H]1NC(=O)[C@H](Cc2ccc(O)cc2)NC(=O)CCC(=O)NC[C@@H](C(=O)N(C)CC(=O)N[C@@H](Cc2c[nH]c3ccccc23)C(=O)NCC(N)=O)NC(=O)[C@H](CC(N)=O)NC(=O)[C@H](CCC(N)=O)NC1=O` [Example 36] (YIQN[Dap][Sar]WG-NH2; linker N-5 via Suc), in test [1], the EC50 amounted to 2 nM and the “hOT efficacy (%)” value is 111%.
Take `CC[C@H](C)[C@@H]1NC(=O)[C@H](Cc2ccc(O)cc2)NC(=O)CCC(=O)NC[C@@H](C(=O)N(CC(=O)N[C@](C)(CC(C)C)C(=O)NCC(N)=O)C2CC2)NC(=O)[C@H](CC(N)=O)NC(=O)[C@H](CCC(N)=O)NC1=O` [Example 39] (YIQN[Dap][NcPrGly][d(αMeL)]G-NH2; linker N-5 via Suc): in test [1], the concentration for a half-maximal effect (EC50) came out at 1.3 nM and the Emax stood at 108%.
As for `CC[C@H](C)[C@@H]1NC(=O)[C@H](Cc2ccc(O)cc2)NC(=O)CCC(=O)NC[C@@H](C(=O)N(CC(=O)N[C@@H](C(=O)NCC(N)=O)C(C)C)C2CC2)NC(=O)[C@H](CC(N)=O)NC(=O)[C@H](CCC(N)=O)NC1=O` [Example 40] (YIQN[Dap][NcPrGly][dV]G-NH2; linker N-5 via Suc), in test [1], the EC50 was 0.6 nM and the Emax stood at 106%.
As to `CC[C@H](C)[C@@H]1NC(=O)[C@H](Cc2ccc(O)cc2)NC(=O)CCC(=O)NC[C@@H](C(=O)N(CC(=O)NC(C)(C)C(=O)NCC(N)=O)C2CC2)NC(=O)[C@H](CC(N)=O)NC(=O)[C@H](CCC(N)=O)NC1=O` [Example 41] (YIQN[Dap][NcPrGly][Aib]G-NH2; linker N-5 via Suc), in test [1], the EC50 came out at 2.5 nM and the Emax came out at 108%.
Consider `CC[C@@H](C)[C@@H](NC(=O)CN(C(=O)[C@@H]1CNC(=O)CCC(=O)N[C@@H](Cc2ccc(O)cc2)C(=O)N[C@@H]([C@@H](C)CC)C(=O)N[C@@H](CCC(N)=O)C(=O)N[C@@H](CC(N)=O)C(=O)N1)C1CC1)C(=O)NCC(N)=O` [Example 42] (YIQN[Dap][NcPrGly][dI]G-NH2; linker N-5 via Suc), for which, in test [1], the EC50 worked out at 0.37 nM and the Emax was found to be 115%.
For `CC[C@H](C)[C@@H]1NC(=O)[C@H](Cc2ccc(O)cc2)NC(=O)CCC(=O)NC[C@@H](C(=O)N(CC(=O)N[C@H](C(=O)NCC(N)=O)C2CCCCC2)C2CC2)NC(=O)[C@H](CC(N)=O)NC(=O)[C@H](CCC(N)=O)NC1=O` [Example 43] (YIQN[Dap][NcPrGly][Chg]G-NH2; linker N-5 via Suc) the same measures were 0.26 nM and 110%.
Taken in the same sequence, the figures for `CC[C@H](C)[C@@H]1NC(=O)[C@H](Cc2ccc(O)cc2)NC(=O)CCC(=O)NC[C@@H](C(=O)N(CC(=O)N[C@H](C(=O)NCC(N)=O)[C@@H](C)O)C2CC2)NC(=O)[C@H](CC(N)=O)NC(=O)[C@H](CCC(N)=O)NC1=O` [Example 44] (YIQN[Dap][NcPrGly]TG-NH2; linker N-5 via Suc) were 0.9 nM and 115%.
`CC[C@H](C)[C@@H]1NC(=O)[C@H](Cc2ccc(O)cc2)NC(=O)CCC(=O)NC[C@@H](C(=O)N(CC(=O)N[C@@H](CO)C(=O)NCC(N)=O)C2CC2)NC(=O)[C@H](CC(N)=O)NC(=O)[C@H](CCC(N)=O)NC1=O` [Example 45] (YIQN[Dap][NcPrGly]SG-NH2; linker N-5 via Suc): in test [1], the half-maximal effective concentration (EC50) was 0.8 nM and the Emax was determined as 117%.
